Assays:
Test in all cases: KINOMEscan competition binding
Settings in all cases: compound 10.0 µM
[1] = target: PAK6 (human) (UniProt Q9NQU5)
[2] = target: IGF1R (human) (UniProt P08069)
[3] = target: DCLK3 (human) (UniProt Q9C098)
[4] = target: TLK1 (human) (UniProt Q9UKI8)
[5] = target: ERBB2 (human) (UniProt P04626)
[6] = target: CDK14 (human) (UniProt O94921)
[7] = target: GAK (human) (UniProt O14976)
[8] = target: INSRR (human) (UniProt P14616)
[9] = target: NEK6 (human) (UniProt Q9HC98)
[10] = target: PRKD1 (human) (UniProt Q15139)
[11] = target: ERBB4 (human) (UniProt Q15303)
[12] = target: STK35 (human) (UniProt Q8TDR2)
[13] = target: STK17B (human) (UniProt O94768)
[14] = system: RET (human), P07949 [V804M]
[15] = target: ACVR2B (human) (UniProt Q13705)
[16] = target: MAP2K1 (human) (UniProt Q02750)
[17] = target: SYK (human) (UniProt P43405)
[18] = target: BTK (human) (UniProt Q06187)
[19] = target: AXL (human) (UniProt P30530)
[20] = target: TESK1 (human) (UniProt Q15569)
[21] = target: MAP3K3 (human) (UniProt Q99759)
[22] = target: CaMK1 (human) (UniProt Q14012)
[23] = target: EPHA8 (human) (UniProt P29322)
[24] = target: RPS6KA1 KD1 (human) (UniProt Q15418)
[25] = target: CDK7 (human) (UniProt P50613)
[26] = target: EPHB1 (human) (UniProt P54762)
[27] = target: NTRK3 (human) (UniProt Q16288)
[28] = target: GSK3B (human) (UniProt P49841)
[29] = target: MAP2K6 (human) (UniProt P52564)
[30] = target: TEK (human) (UniProt Q02763)
[31] = target: ABL2 (human) (UniProt P42684)
[32] = target: PAK2 (human) (UniProt Q13177)
[33] = target: CLK3 (human) (UniProt P49761)

INSRR (human), sequence (P14616 whole entry, looked up): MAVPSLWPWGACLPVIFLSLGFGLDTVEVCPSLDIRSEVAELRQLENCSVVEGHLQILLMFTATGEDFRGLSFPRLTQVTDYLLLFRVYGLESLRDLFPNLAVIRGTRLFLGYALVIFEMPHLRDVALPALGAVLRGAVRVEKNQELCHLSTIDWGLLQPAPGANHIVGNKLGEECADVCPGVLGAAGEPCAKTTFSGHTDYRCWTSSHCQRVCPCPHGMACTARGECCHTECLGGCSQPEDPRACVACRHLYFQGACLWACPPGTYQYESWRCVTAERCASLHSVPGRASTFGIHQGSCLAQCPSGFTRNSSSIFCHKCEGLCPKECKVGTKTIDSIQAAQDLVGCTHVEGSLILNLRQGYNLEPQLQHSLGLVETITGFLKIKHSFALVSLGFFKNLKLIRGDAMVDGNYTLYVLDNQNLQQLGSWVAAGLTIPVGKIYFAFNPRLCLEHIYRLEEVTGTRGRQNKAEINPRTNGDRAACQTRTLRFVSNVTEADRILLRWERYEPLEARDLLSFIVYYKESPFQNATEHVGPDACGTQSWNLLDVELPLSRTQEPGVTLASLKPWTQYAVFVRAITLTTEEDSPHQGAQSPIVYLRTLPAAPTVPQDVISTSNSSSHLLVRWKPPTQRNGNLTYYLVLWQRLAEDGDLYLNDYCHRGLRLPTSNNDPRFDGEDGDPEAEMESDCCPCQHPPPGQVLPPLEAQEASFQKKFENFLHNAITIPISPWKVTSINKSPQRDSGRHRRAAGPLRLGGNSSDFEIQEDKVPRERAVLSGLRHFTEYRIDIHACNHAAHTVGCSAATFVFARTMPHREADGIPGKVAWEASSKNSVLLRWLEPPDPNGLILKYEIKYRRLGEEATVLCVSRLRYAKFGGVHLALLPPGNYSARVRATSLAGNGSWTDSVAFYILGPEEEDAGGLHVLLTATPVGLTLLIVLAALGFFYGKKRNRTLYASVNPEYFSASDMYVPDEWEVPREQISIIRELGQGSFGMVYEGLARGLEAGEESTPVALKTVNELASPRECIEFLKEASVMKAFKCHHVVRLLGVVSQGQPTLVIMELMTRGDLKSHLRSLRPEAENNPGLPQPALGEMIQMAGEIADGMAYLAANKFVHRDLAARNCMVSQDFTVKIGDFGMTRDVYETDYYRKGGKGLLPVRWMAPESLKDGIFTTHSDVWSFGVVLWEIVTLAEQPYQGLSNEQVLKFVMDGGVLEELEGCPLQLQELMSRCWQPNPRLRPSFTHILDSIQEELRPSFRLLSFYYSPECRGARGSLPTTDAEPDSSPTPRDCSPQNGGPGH
ERBB4 (human), sequence (Q15303 whole entry, looked up): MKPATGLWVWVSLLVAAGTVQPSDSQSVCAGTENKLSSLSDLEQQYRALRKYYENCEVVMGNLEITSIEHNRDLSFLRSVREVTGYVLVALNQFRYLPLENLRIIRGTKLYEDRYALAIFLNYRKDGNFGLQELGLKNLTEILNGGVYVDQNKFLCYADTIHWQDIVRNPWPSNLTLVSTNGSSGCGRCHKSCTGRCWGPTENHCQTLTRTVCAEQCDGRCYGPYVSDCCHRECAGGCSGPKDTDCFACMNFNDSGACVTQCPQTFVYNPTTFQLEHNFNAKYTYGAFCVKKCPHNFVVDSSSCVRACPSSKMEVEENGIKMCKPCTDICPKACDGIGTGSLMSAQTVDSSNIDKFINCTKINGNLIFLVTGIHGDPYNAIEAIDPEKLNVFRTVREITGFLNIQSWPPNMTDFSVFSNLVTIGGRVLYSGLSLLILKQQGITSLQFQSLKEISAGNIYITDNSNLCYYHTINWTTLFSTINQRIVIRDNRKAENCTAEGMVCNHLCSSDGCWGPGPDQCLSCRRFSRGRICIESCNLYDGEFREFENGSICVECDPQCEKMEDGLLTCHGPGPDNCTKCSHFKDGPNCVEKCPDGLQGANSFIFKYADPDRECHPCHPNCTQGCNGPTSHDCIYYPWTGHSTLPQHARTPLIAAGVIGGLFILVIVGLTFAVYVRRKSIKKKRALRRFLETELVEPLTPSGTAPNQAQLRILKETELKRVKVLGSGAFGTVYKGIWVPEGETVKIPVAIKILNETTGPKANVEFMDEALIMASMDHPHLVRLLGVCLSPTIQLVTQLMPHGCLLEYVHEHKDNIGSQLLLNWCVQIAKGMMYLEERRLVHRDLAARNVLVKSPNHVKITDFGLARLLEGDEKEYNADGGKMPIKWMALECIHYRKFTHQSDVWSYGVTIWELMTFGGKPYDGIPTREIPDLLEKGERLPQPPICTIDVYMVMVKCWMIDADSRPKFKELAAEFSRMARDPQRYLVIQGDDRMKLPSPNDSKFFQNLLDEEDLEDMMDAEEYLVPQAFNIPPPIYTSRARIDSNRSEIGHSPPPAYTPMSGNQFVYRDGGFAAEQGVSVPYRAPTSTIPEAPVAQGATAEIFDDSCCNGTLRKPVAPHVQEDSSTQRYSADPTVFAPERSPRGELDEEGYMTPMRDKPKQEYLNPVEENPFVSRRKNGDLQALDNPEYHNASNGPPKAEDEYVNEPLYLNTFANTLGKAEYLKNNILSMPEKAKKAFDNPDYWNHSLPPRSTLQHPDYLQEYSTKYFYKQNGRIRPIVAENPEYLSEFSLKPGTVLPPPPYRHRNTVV
STK17B (human), sequence (O94768 whole entry, looked up): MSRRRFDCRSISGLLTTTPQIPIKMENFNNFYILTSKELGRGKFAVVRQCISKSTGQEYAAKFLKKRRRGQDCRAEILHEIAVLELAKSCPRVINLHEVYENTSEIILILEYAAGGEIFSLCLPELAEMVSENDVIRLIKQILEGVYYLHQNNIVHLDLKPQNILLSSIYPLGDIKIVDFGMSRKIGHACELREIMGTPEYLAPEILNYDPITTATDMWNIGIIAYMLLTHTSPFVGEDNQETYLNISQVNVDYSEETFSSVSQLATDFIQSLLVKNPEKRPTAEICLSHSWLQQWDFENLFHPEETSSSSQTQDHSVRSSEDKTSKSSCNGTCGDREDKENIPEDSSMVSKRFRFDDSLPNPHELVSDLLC
CDK14 (human), sequence (O94921 whole entry, looked up): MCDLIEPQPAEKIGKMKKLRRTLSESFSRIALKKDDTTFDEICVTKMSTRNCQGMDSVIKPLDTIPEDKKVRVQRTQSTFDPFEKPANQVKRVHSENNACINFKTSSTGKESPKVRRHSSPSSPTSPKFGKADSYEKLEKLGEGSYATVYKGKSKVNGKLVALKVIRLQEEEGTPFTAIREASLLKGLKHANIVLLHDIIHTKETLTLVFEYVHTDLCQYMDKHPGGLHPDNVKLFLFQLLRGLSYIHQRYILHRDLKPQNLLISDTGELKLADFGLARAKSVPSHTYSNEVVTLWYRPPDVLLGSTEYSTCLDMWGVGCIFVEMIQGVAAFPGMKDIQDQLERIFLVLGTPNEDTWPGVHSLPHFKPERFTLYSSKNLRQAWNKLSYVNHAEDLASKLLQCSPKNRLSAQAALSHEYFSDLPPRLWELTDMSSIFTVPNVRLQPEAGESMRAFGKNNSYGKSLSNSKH
EPHB1 (human), sequence (P54762 whole entry, looked up): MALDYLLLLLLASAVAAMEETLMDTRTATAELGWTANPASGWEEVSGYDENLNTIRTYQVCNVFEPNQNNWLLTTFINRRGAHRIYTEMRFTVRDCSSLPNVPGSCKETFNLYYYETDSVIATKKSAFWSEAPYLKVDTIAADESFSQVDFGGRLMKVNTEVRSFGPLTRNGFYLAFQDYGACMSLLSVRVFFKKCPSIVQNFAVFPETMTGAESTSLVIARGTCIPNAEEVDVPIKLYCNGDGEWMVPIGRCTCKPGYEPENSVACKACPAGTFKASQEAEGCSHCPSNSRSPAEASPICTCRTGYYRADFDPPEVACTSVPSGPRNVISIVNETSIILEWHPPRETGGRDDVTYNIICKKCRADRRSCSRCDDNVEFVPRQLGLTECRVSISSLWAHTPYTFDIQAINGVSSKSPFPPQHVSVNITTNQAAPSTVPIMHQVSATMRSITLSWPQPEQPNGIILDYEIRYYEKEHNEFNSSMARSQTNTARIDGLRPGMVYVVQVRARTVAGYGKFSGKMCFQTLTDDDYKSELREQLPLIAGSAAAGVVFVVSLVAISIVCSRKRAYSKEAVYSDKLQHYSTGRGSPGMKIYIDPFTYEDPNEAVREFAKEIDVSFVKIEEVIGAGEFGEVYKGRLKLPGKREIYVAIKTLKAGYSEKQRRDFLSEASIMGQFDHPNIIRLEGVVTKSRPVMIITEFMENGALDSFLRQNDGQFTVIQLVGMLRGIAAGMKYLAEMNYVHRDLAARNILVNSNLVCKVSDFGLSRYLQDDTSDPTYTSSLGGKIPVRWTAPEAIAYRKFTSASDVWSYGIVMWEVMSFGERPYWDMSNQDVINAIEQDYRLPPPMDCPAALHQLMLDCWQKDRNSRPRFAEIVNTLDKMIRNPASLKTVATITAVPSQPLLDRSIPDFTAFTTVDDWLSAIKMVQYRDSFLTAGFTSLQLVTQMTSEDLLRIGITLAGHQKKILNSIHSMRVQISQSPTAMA
STK35 (human), sequence (Q8TDR2 whole entry, looked up): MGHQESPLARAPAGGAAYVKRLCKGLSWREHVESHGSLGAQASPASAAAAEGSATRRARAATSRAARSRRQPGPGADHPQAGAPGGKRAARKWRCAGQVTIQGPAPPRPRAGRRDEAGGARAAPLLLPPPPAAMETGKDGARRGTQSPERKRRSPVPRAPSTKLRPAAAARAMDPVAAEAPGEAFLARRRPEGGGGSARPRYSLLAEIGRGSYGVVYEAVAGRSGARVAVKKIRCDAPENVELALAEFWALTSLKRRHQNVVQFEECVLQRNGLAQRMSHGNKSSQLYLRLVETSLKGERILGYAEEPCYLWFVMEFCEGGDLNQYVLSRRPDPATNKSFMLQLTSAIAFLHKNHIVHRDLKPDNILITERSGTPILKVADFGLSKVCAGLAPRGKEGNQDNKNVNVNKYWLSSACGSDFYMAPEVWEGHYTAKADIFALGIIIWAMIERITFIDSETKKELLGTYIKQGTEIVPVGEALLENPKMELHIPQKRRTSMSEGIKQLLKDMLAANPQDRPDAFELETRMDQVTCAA

Cc1n[nH]c2ccc(-c3cncc(OC[C@@H](N)Cc4c[nH]c5ccccc45)c3)cc12
kinase still bound, per cent of control [1]: 16% | kinase still bound, per cent of control [2]: 100% | kinase still bound, per cent of control [3]: 2% | kinase still bound, per cent of control [4]: 100% | kinase still bound, per cent of control [5]: 100% | kinase still bound, per cent of control [6]: 9.8% | kinase still bound, per cent of control [7]: 8.1% | kinase still bound, per cent of control [8]: 100% | kinase still bound, per cent of control [9]: 100% | kinase still bound, per cent of control [10]: 2% | kinase still bound, per cent of control [11]: 100% | kinase still bound, per cent of control [12]: 100% | kinase still bound, per cent of control [13]: 20% | kinase still bound, per cent of control [14]: 10% | kinase still bound, per cent of control [15]: 100% | kinase still bound, per cent of control [16]: 100% | kinase still bound, per cent of control [17]: 100% | kinase still bound, per cent of control [18]: 100% | kinase still bound, per cent of control [19]: 14% | kinase still bound, per cent of control [20]: 100% | kinase still bound, per cent of control [21]: 29% | kinase still bound, per cent of control [22]: 33% | kinase still bound, per cent of control [23]: 100% | kinase still bound, per cent of control [24]: 100% | kinase still bound, per cent of control [25]: 0.3% | kinase still bound, per cent of control [26]: 100% | kinase still bound, per cent of control [27]: 100% | kinase still bound, per cent of control [28]: 1% | kinase still bound, per cent of control [29]: 100% | kinase still bound, per cent of control [30]: 100% | kinase still bound, per cent of control [31]: 100% | kinase still bound, per cent of control [32]: 4.6% | kinase still bound, per cent of control [33]: 0%

CNC(=O)c1ccc(Nc2cc(Nc3ccccc3S(=O)(=O)C(C)C)c3cc[nH]c3n2)nc1
kinase still bound, per cent of control [1]: 100% | kinase still bound, per cent of control [2]: 2.2% | kinase still bound, per cent of control [3]: 2.8% | kinase still bound, per cent of control [4]: 100% | kinase still bound, per cent of control [5]: 100% | kinase still bound, per cent of control [6]: 100% | kinase still bound, per cent of control [7]: 2.5% | kinase still bound, per cent of control [8]: 3.2% | kinase still bound, per cent of control [9]: 100% | kinase still bound, per cent of control [10]: 100% | kinase still bound, per cent of control [11]: 100% | kinase still bound, per cent of control [12]: 12% | kinase still bound, per cent of control [13]: 33% | kinase still bound, per cent of control [14]: 1.2% | kinase still bound, per cent of control [15]: 100% | kinase still bound, per cent of control [16]: 3% | kinase still bound, per cent of control [17]: 2.6% | kinase still bound, per cent of control [18]: 0.65% | kinase still bound, per cent of control [19]: 1.3% | kinase still bound, per cent of control [20]: 30% | kinase still bound, per cent of control [21]: 4.8% | kinase still bound, per cent of control [22]: 100% | kinase still bound, per cent of control [23]: 100% | kinase still bound, per cent of control [24]: 0.8% | kinase still bound, per cent of control [25]: 1.8% | kinase still bound, per cent of control [26]: 100% | kinase still bound, per cent of control [27]: 0.4% | kinase still bound, per cent of control [28]: 100% | kinase still bound, per cent of control [29]: 29% | kinase still bound, per cent of control [30]: 1.8% | kinase still bound, per cent of control [31]: 9.4% | kinase still bound, per cent of control [32]: 100% | kinase still bound, per cent of control [33]: 2.8%

C=CC(=O)Nc1ccc(CN(C(=O)Nc2c(Cl)c(OC)cc(OC)c2Cl)c2cc(Nc3ccc(N4CCN(C)CC4)cc3)ncn2)cc1
kinase still bound, per cent of control [1]: 100% | kinase still bound, per cent of control [2]: 16% | kinase still bound, per cent of control [3]: 100% | kinase still bound, per cent of control [4]: 100% | kinase still bound, per cent of control [5]: 16% | kinase still bound, per cent of control [6]: 100% | kinase still bound, per cent of control [7]: 100% | kinase still bound, per cent of control [8]: 18% | kinase still bound, per cent of control [9]: 100% | kinase still bound, per cent of control [10]: 100% | kinase still bound, per cent of control [11]: 2.2% | kinase still bound, per cent of control [12]: 100% | kinase still bound, per cent of control [13]: 100% | kinase still bound, per cent of control [14]: 100% | kinase still bound, per cent of control [15]: 100% | kinase still bound, per cent of control [16]: 100% | kinase still bound, per cent of control [17]: 100% | kinase still bound, per cent of control [18]: 1.2% | kinase still bound, per cent of control [19]: 100% | kinase still bound, per cent of control [20]: 100% | kinase still bound, per cent of control [21]: 5.8% | kinase still bound, per cent of control [22]: 100% | kinase still bound, per cent of control [23]: 100% | kinase still bound, per cent of control [24]: 100% | kinase still bound, per cent of control [25]: 100% | kinase still bound, per cent of control [26]: 100% | kinase still bound, per cent of control [27]: 100% | kinase still bound, per cent of control [28]: 100% | kinase still bound, per cent of control [29]: 100% | kinase still bound, per cent of control [30]: 0.95% | kinase still bound, per cent of control [31]: 9.1% | kinase still bound, per cent of control [32]: 100% | kinase still bound, per cent of control [33]: 100%

CCN(CC)CCCCNc1ncc2cc(-c3cc(OC)cc(OC)c3)c(NC(=O)NC(C)(C)C)nc2n1
kinase still bound, per cent of control [1]: 100% | kinase still bound, per cent of control [2]: 100% | kinase still bound, per cent of control [3]: 100% | kinase still bound, per cent of control [4]: 100% | kinase still bound, per cent of control [5]: 100% | kinase still bound, per cent of control [6]: 100% | kinase still bound, per cent of control [7]: 100% | kinase still bound, per cent of control [8]: 100% | kinase still bound, per cent of control [9]: 100% | kinase still bound, per cent of control [10]: 100% | kinase still bound, per cent of control [11]: 100% | kinase still bound, per cent of control [13]: 100% | kinase still bound, per cent of control [15]: 100% | kinase still bound, per cent of control [16]: 100% | kinase still bound, per cent of control [17]: 100% | kinase still bound, per cent of control [18]: 100% | kinase still bound, per cent of control [19]: 100% | kinase still bound, per cent of control [20]: 100% | kinase still bound, per cent of control [22]: 100% | kinase still bound, per cent of control [23]: 100% | kinase still bound, per cent of control [24]: 100% | kinase still bound, per cent of control [25]: 100% | kinase still bound, per cent of control [26]: 100% | kinase still bound, per cent of control [27]: 100% | kinase still bound, per cent of control [28]: 100% | kinase still bound, per cent of control [29]: 100% | kinase still bound, per cent of control [30]: 100% | kinase still bound, per cent of control [31]: 100% | kinase still bound, per cent of control [32]: 100% | kinase still bound, per cent of control [33]: 100%

From the kinase profiling compilation of Christmann-Franck et al. (2016)
